Measurements reported in patent US20250248209A1, “LIGHT-EMITTING DEVICE” (SEMICONDUCTOR ENERGY LABORATORY CO., LTD., priority 2024, published 2025).
Converted amounts (≈) assume the structure as drawn. “Also recorded” adds a separate entry of the source.

Test: Solubility test of each organic compound in pure water by LC-MS analysis
Type: physicochemical
Conditions: 1 mg compound in 1 mL water, ultrasonic waves five minutes, filtered, evaluated from LC peak area; for solubility at 5 min: pure water, thermodynamic from solid
Method: In the LC-MS analysis, liquid chromatography (LC) separation was carried out with ACQUITY UPLC (Waters Corporation), and mass spectrometry (MS) analysis was carried out with Xevo G2 Tof MS (Waters Corporation). Note that this analysis was performed on Hid2Phen, Pyrrd-Phen, and PrdP2Phen. ACQUITY UPLC BEH C8 (2.1×100 mm, 1.7 μm) was used as a column for the LC separation. Acetonitrile was used for Mobile Phase A and a 0.1% aqueous solution of formic acid was used for Mobile Phase B. The injection amount of the sample was 5.0 μL. Note that in the analysis, the wavelength of a photodiode array detector was set to 263 nm±1 nm.
Then, in a 5-mL sample bottle, 1 mg of each organic compound was put and 1 mL of water was added thereto. The mixture was irradiated with ultrasonic waves for five minutes. The mixture was filtered through a membrane filter to remove the solid. The resulting solution was subjected to the LC-MS analysis to create a chromatogram. The solubility was evaluated from the area of a peak in the chromatograph.

| SMILES | solubility at 5 min [µg/mL] | Solubility in pure water |
| --- | --- | --- |
| c1cc(N2CC3CCCCC3C2)c2ccc3c(N4CC5CCCCC5C4)ccnc3c2n1 (stereo not drawn) [Hid2Phen, 4,7-di(2,3,3a,4,5,6,7,7a-octahydro-^1H-isoindol-2-yl)-1,10-phenanthroline] | 5.5 (≈ 12.9 µM) | – |
| c1cc(N2CCCC2)c2ccc3c(N4CCCC4)ccnc3c2n1 [Pyrrd-Phen, 4,7-di-1-pyrrolidinyl-1,10-phenanthroline] | ≥ 50 | – |
| c1cc(-c2ccc(N3CCCC3)cc2)c2ccc3c(-c4ccc(N5CCCC5)cc4)ccnc3c2n1 [PrdP2Phen, 4,7-bis[4-(1-pyrrolidinyl)phenyl]-1,10-phenanthroline] | – | below the lower detection limit; also recorded: extremely low solubility in pure water; also recorded: Not detected |
